Results taken from publication PMC9061853, “Luminescent bis(benzo[d]thiazolyl)quinoxaline: facile synthesis, nucleic acid and protein BSA interaction, live-cell imaging, biopharmaceutical research and cancer theranostic application” (RSC Advances, 2019).
Each block holds one molecule with its values, some of them ahead of it.

Columns and labels:
HeLa cells = experiment: Live cell imaging / cellular uptake; type: cell-based, human; conditions: 50 μM in buffer, 4 h incubation, fluorescence microscopy
Method: Live cell imaging was performed in HeLa cell line. Compound 7e in 50 μM concentration in the buffer, were incubated with HeLa cells for 4 h. […] Significant potency, selectivity and cellular imaging property of compound 7e, mark it as a theranostic agent.
Fig. 2 Fluorescence and bright-field images of live cells: (a) fluorescent image of HeLa cell with compound 7e (50 μM in PBS buffer); incubation time 2 hours (b) bright-field image of HeLa cell with compound 7e (50 μM in PBS buffer); incubation time 2 hours. Scale bar 100 μm.
Then the 96 well plate was placed on the shaker for 10 min and subsequently the absorbance was recorded by the ELISA reader at λ = 490 nm. […] The data were expressed as the growth inhibition percentage calculated according to the equation: % growth inhibition = 100 − [(AD × 100)/AB], where AD is the absorbance measured for sample and AB is the absorbance measured for blank wells (cells with a […]
After incubating for 4 h at 37 °C, all the cells were washed with PBS buffer (pH 7.4). Then, the fluorescence images were recorded with an Olympus Fluorescence microscope with 480- […]
Interaction of complex (7e ) with DNA was recorded using UV-Visible absorption spectroscopy and ethidium bromide displacement assay by fluorescence spectroscopy. […]
The CT-DNA concentration in buffer were calculated by using the UV absorbance value at 260 nm and from the known molar […]

[1] = Biopharmaceutical classification (BCS / BDDCS); conditions: primarily classified
[2] = Metabolic stability in mouse liver microsomes; type: in vitro ADME; conditions: for % Metabolism in 30 min: 0.5 μM, 0.5 mg ml^−1 protein, NADPH, 37 °C; for half-life at 0.5 μM: mouse, liver microsomes
Method: (§1) The in vitro metabolic rate of 7g was determined in liver microsomes and the intrinsic clearance (CLintr) was estimated. The study was conducted at 0.5 μM substrate concentration and microsomal protein concentration of 0.5 mg ml^−1. Metabolic stability study in the presence of microsomes and cofactor NADPH was performed at 37 °C, 60 rpm for 30 min time duration. NADPH free control incubation was performed simultaneously for 30 min to understand if there are any non-enzymatic metabolism related issues. […] Intrinsic clearance as given in Table 6, was calculated using eqn (8). ^†

[3] = Caco-2 permeability study; type: in vitro ADME; conditions: human, Caco-2, 10 μM, N = 3
Method: (§2) Compound 7g permeation ability (i.e. permeability) was assessed through Caco-2 cell monolayer. Permeability study was planned in both directions from apical to basolateral (A to B) and basolateral to apical (B to A) side. A to B is for checking drug permeation characteristics from the intestine (site of absorption) to systemic circulation and B to A is for checking drug efflux back to the intestine.

Caco-2 cell monolayer = experiment: Caco-2 permeability study; type: in vitro ADME; conditions: 10 μM, A to B and B to A; samples below the lower limit of quantitation
Method: as §2

[4] = Buffer stability (LC-MS/MS); type: physicochemical; conditions: pH 7.4 buffer, read-out: % Remaining in 120 min
Method: LC-MS/MS methods were developed for compound 7g to quantify the drug concentration and in vitro study (i.e. buffer solubility, buffer stability, metabolic stability, and permeability) in a systemic manner (Table 4). Chromatographic elution conditions were set with the use of 5 mM ammonium formate containing 0.1% formic acid and acetonitrile containing 0.1% formic acid with C8, Kromasil, and 4.6 × […] as a stationary phase (Fig. S5a and b ^†). […] For the data analysis, % accuracy of compound 7g was calculated and it was soluble up to 25 μM (Fig. 3, eqn (7) ^†).
The in vitro solubility and stability of 7g were evaluated in pH 7.4 buffer. The buffer solubility and stability studies were conducted at six different concentrations ranging from 3.13 to 100 μM. For the data analysis, % stability of compound 7g at 120 min was calculated with respect to 0 min time point samples and it was stable up to 2 hours in pH 7.4 buffers. Data analysis was performed through the eqn (8) ^† and was tabulated (Table 4). Compound 7g found to be stable up to 2 hours with % remaining of 71% in pH 7.4.

[5] = Metabolic stability in dog liver microsomes; type: in vitro ADME; conditions: for % Metabolism in 30 min: 0.5 μM, 0.5 mg ml^−1 protein, NADPH, 37 °C; for half-life at 0.5 μM: dog, liver microsomes
Method: as §1

SMILES: Clc1cc2nc(COc3ccccc3-c3nc4ccccc4s3)c(COc3ccccc3-c3nc4ccccc4s3)nc2cc1Cl [Compound 7e]
fluorescence of drug-treated live cells (cellular uptake) (HeLa cells): significant red fluorescence

BCS class [1]: BCS class 4
BDDCS class [1]: BDDCS class 4
CLint ([2]; MLM set 1): 13 μl per min per mg protein
% Metabolism in 30 min ([2]; MLM set 1): 12%
CLint ([2]; MLM set 2): 28 μl per min per mg protein
% Metabolism in 30 min ([2]; MLM set 2): 37%
half-life at 0.5 μM ([2]; MLM set 1): 1.83 h
half-life at 0.5 μM ([2]; MLM set 2): 0.818 h
recovery at 10 μM ([3]; A to B): 101%
recovery at 10 μM ([3]; B to A): 96%
permeability across Caco-2 cell monolayer (Caco-2 cell monolayer): low permeability
remaining at 2 h, 3.13 μM ([4]; 3.13 μM): 59%
remaining at 2 h, 6.25 μM ([4]; 6.25 μM): 68%
remaining at 2 h, 12.5 μM ([4]; 12.50 μM): 81%
remaining at 2 h, 25 μM ([4]; 25.00 μM): 110%
remaining at 2 h, 50 μM ([4]; 50.00 μM): 110%
remaining at 2 h, 100 μM ([4]; 100.00 μM): 71%
CLint ([5]; DLM set 1): 18 μl per min per mg protein
% Metabolism in 30 min ([5]; DLM set 1): 21%
CLint ([5]; DLM set 2): 12 μl per min per mg protein
% Metabolism in 30 min ([5]; DLM set 2): 14%
half-life at 0.5 μM ([5]; DLM set 1): 1.28 h
half-life at 0.5 μM ([5]; DLM set 2): 1.91 h
SMILES: COc1ccc2nc(COc3ccccc3-c3nc4ccccc4s3)c(COc3ccccc3-c3nc4ccccc4s3)nc2c1 [Compound 7g, 2,2'-((((6-methoxyquinoxaline-2,3-diyl)bis(methylene))bis(oxy))bis(2,1-phenylene))bis(benzo[d]thiazole)]
